{
  "source": "patent US20180161433A1",
  "about": "“SIZE TUNABLE MICROBIAL MIMETICS FOR IMMUNOTHERAPY OF THYROID CARCINOMAS AND SOLID TUMORS” (priority 2017, published 2018)",
  "molecules": {"B1": {"name": "PEGylated IL-10: PEGylated IL-10 given to patients (protein, UniProt P22301 19-178, looked up)", "Interleukin-10": "SPGQGTQSENSCTHFPGNLPNMLRDLRDAFSRVKTFFQMKDQLDNLLLKESLLEDFKGYLGCQALSEMIQFYLEEVMPQAENQDPDIKAHVNSLGENLKTLRLRLRRCHRFLPCENKSKAVEQVKNAFNKLQEKGIYKAMSEFDIFINYIEAYMTMKIRN", "modifications": "PEGylated"}},
  "key": {"[1]": {"test_system": "Human peripheral blood mononuclear cells (PBMCs)", "assay": "Induced cytokine secretion by PBMCs (ELISA)", "type": "cell-based", "conditions": "for cytokine secretion when complexed to the CAL2 peptide: complexed to CAL2, versus the component on its own; for cytokine secretion, component on its own: individual component, 24 hours", "protocol": "(§1) FIG. 10 is bar graph showing the induced secretion of IL-6 by PBMCs exposed to PolyIC, RNA248, DNA4, DNA10, PolyIC complexed with SEQ. ID NO. 36 (CAL2), RNA248 complexed with SEQ. ID NO. 36, DNA4 complexed with SEQ. ID NO. 36, DNA10 complexed with SEQ. ID NO. 36, DNA4 and RNA248 complexed with SEQ. ID NO. 36, Pam2CSK4-conjugated SEQ. ID NO. 36 complexed with DNA4 and SEQ. ID NO. 36 alone. Each well contained ˜300,000 fresh PBMCs in a total volume of 100 μL of RPMI medium. Solutions of SEQ. ID NO. 36, PolyIC, DNA4, DNA10, Pam2CSK4-conjugated SEQ. ID NO. 36 were all pre-mixed to concentrations of 50 ug/mL (for each peptide reagent) and then added to wells in volumes of 100 uL, such that each well contained a 200 uL volume of PBMCs and reagents. Wells were run in triplicate and the mean value is indicated.\nas §1, with “FIG. 11” for “FIG. 10”, “of IL-10” for “of IL-6”\nFIG. 12 is a bar graph showing the induced secretion of IL-12 by PBMCs exposed to PolyIC, RNA248, DNA4, DNA10, PolyIC complexed with SEQ. ID NO. 36 (CAL2), RNA248 complexed with SEQ. ID NO. 36, DNA4 complexed with SEQ. ID NO. 36, DNA10 complexed with SEQ. ID NO. 36, DNA4 and RNA248 complexed with SEQ. ID NO. 36, Pam2CSK4-conjugated SEQ. ID NO. 36 complexed with DNA4 and SEQ. ID NO. 36 alone. Each well contained ˜300,000 fresh PBMCs in a total volume of 100 μL of RPMI medium. Solutions of SEQ. ID NO. 36, PolyIC, DNA4, DNA10, Pam2CSK4-conjugated SEQ. ID NO. 36 were all pre-mixed to concentrations of 50 ug/mL (for each peptide reagent) and then added to wells in volumes of 100 uL, such that each well contained a 200 uL volume of PBMCs and reagents. Wells were run in triplicate and the mean value is indicated.\nFIG. 13 is a bar graph showing the induced secretion of IL-15 by PBMCs exposed to PolyIC, RNA248, DNA4, DNA10, PolyIC complexed with SEQ. ID NO. 36 (CAL2), RNA248 complexed with SEQ. ID NO. 36, DNA4 complexed with SEQ. ID NO. 36, DNA10 complexed with SEQ. ID NO. 36, DNA4 and RNA248 complexed with SEQ. ID NO. 36, Pam2CSK4-conjugated SEQ. ID NO. 36 complexed with DNA4 and SEQ. ID NO. 36 alone. Each well contained ˜300,000 fresh PBMCs in a total volume of 100 μL of RPMI medium. Solutions of SEQ. ID NO. 36, PolyIC, DNA4, DNA10, Pam2CSK4-conjugated SEQ. ID NO. 36 were all pre-mixed to concentrations of 50 ug/mL (for each peptide reagent) and then added to wells in volumes of 100 uL, such that each well contained a 200 uL volume of PBMCs and reagents. Wells were run in triplicate and the mean value is indicated.\nas §1, with “FIG. 14” for “FIG. 10”, “is a” for “is”, “of IFN-α” for “of IL-6”, “reagents. […]” for “reagents. Wells were run in triplicate and the mean value is indicated.”"}, "DNA4/RNA248": {"test_system": "DNA4/RNA248", "assay": "MM complex stability by gel electrophoresis", "type": "physicochemical", "conditions": "for complex formation with DNA4/RNA248: disappearance of free DNA4/RNA248 at sufficient peptide concentrations", "protocol": "FIG. 9 is an image generated from a gel electrophoresis experiment (20 V/cm), whereby SEQ. ID NO. 36 (1 mg/mL) was mixed with DNA4/RNA248 (1 mg/mL) at ratios of 1:4 (Lane #2), 1:2 (Lane #3), 1:1 (Lane #4), 2:1 (Lane #5), and 4:1 (Lane #6) SEQ. ID NO. 36 to DNA4/RNA248. For reference, only DNA4/RNA248 was placed in Lane #1. The DNA4/RNA248 mixture travels in the gel away from the negative electrode (top) due its inherent negative charge.\nGiven the importance of forming stable complexes of antigenic cargo with immune-stimulatory molecules, the stability of MM was characterized using gel electrophoresis. MM were formed by mixing CAL2 (SEQ. ID NO. 36) with […] at varying ratios. […] The experiment was repeated for several other peptides, including SEQ. ID NOS. 34 and 42. […] Furthermore, the intensity of each band decreased as concentration of peptide increased. The presence of the linker sequence, RRHRKRR (SEQ. ID NO. 64), was determined to be critical for stable complexation. Separately, solutions of MM were tested after sitting at room temperature for 2 weeks yielding nearly identical results."}, "[2]": {"test_system": "metastatic iodine-refractory differentiated thyroid cancer (DTC)", "conditions": "cited from earlier work"}, "[3]": {"test_system": "activated circulating CTLs", "conditions": "PD-1+ and LAG-3+ gated flow cytometry; cited from earlier work"}, "[4]": {"conditions": "25 μg/mL, 24 hours, 300,000 PBMCs per well"}},
  "note": "Entries after “also recorded” stand apart in the source; their conditions may differ. Strand notation (5' to 3'): a small letter for the sugar, then the base; units joined by * are phosphorothioate-linked, units joined directly phosphodiester-linked; [ ] holds rarer units or linkages, { } end groups; capitals alone tell only the bases. r = 2'-OH (RNA)",
  "data": [
    {"molecule": "5′-TCGTCGGTTTCGGCGCGCGCCG-3′ (DNA, all phosphorothioate, methylation of C not given here; further chemistry not fully specified) [DNA4]", "values": [
      {"measurement": "induced secretion of IL-12", "setting": "[1]; [4]", "result": "does not induce secretion"},
      {"measurement": "induced secretion of IL-15", "setting": "[1]; [4]", "result": "does not induce secretion"},
      {"measurement": "cytokine secretion when complexed to the CAL2 peptide", "setting": "[1]", "result": "marked increase"},
      {"measurement": "cytokine secretion, component on its own", "setting": "[1]; 25 μg/mL", "result": "minimal"}
    ]},
    {"molecule": "5′-TTCGGCGCGCGCGCGCGCGCGCCGTT-3′ (DNA, all phosphorothioate, methylation of C not given here; further chemistry not fully specified) [DNA10]", "values": [
      {"measurement": "cytokine secretion when complexed to the CAL2 peptide", "setting": "[1]", "result": "marked increase"},
      {"measurement": "cytokine secretion, component on its own", "setting": "[1]; 25 μg/mL", "result": "minimal"}
    ]},
    {"molecule": "5′-guuggugguugugugagcgu-3′ (rG*rU*rU*rG*rG*rU*rG*rG*rU*rU*rG*rU*rG*rU*rG*rA*rG*rC*rG*rU) [RNA248]", "values": [
      {"measurement": "cytokine secretion when complexed to the CAL2 peptide", "setting": "[1]", "result": "marked increase"},
      {"measurement": "cytokine secretion, component on its own", "setting": "[1]; 25 μg/mL", "result": "minimal; also recorded: very minimal"}
    ]},
    {"molecule": "34 (RRHRKRRLSTCMLGTYTQDFNKFHTFPQTAIRRHRKRR; targeting calcitonin) [compound 34]", "values": [
      {"measurement": "complex formation with DNA4/RNA248", "setting": "DNA4/RNA248", "result": "stable complexes were formed"}
    ]},
    {"molecule": "42 (RIPVKWTAIESLFDHRRHRKRR; targeting RETM918T) [compound 42]", "values": [
      {"measurement": "complex formation with DNA4/RNA248", "setting": "DNA4/RNA248", "result": "stable complexes were formed"}
    ]},
    {"molecule": "COc1cc2nccc(Oc3ccc(NC(=O)NC4CC4)c(Cl)c3)c2cc1C(N)=O", "note": "[lenvatinib]", "values": [
      {"measurement": "overall survival benefits", "setting": "[2]", "result": "marginal"},
      {"measurement": "progression free survival", "setting": "[2]", "result": "improved"}
    ]},
    {"molecule": "CNC(=O)c1cc(Oc2ccc(NC(=O)Nc3ccc(Cl)c(C(F)(F)F)c3)cc2)ccn1", "note": "[sorafenib]", "values": [
      {"measurement": "overall survival benefits", "setting": "[2]", "result": "marginal"},
      {"measurement": "progression free survival", "setting": "[2]", "result": "improved"}
    ]},
    {"molecule": "RRHRKRRLSTCMLGTYTQDFNKFHTFPQTAI (targeting calcitonin) [SEQ. ID NO. 36]", "values": [
      {"measurement": "nucleotide bands in gel", "setting": "DNA4/RNA248; SEQ. ID NO. 36 to DNA4/RNA248 2:1 (Lane #5) and 4:1 (Lane #6), 20 V/cm, FIG. 9", "result": "no nucleotide bands are seen"},
      {"measurement": "free DNA4/RNA248 in gel", "setting": "DNA4/RNA248; peptide to DNA4/RNA248 ratios exceeding 2:1, electric field of 20 V/cm", "result": "no free DNA4/RNA248 could be visualized"},
      {"measurement": "cytokine secretion, component on its own", "setting": "[1]; 25 μg/mL", "result": "very minimal"}
    ]},
    {"molecule": "B1", "values": [
      {"measurement": "numbers of activated circulating CTLs", "setting": "[3]", "result": "increased"}
    ]}
  ]
}
